For experiment [1], the system named is murine donor hearts. Nature of the experiment: Hemodynamics (max dp/dt, min dp/dt) of murine donor hearts after cold storage and ex-vivo reperfusion.
Another experiment concerns Il1. Nature of the experiment: Il1 protein level in donor heart after cold storage (western blot). Details: species or system murine. How it is done: (§1) Experiments were conducted during development of embodiments herein to examine the effect of VPA on donor heart function with prolonged cold storage of donor heart. To address this, murine donor hearts were perfused with 7-8 mL HTK solution alone or HTK with 20 mM VPA and then stored the heart for 0, 4, and 8 hours.
(§2) Experiments were conducted during development of embodiments herein to determine whether pharmacological inhibition of MR signaling improves the heart function after prolonged cold storage period. To address this, murine donor hearts were perfused with 7-8 mL HTK solution alone or HTK with 25 μM spironolactone and then stored the heart for 0, 8 and 12 hours.
(In western blotting, separated proteins are transferred to a membrane and probed.)

The test system of another experiment is Myd88. Nature of the experiment: Myd88 protein level in donor heart after cold storage (western blot). Details: species or system murine. How it is done:
as §1, §2

Experiment [2] deals with murine donor hearts. Nature of the experiment: Hemodynamics (max dp/dt, min dp/dt) of murine donor hearts after cold storage and ex-vivo reperfusion. How it is done:
FIG. 5A-C. […] The max dp/dt (A) and min dp/dt (B) were calculated by averaging the max/min dp/dt in 20 minutes stable period after different cold storage periods followed by perfusion. The max dp/dt or −min dp/dt of hearts were normalized to percentage of time 0. **p<0.01. (C) VPA suppress the Ill and Myd88 protein level induced by cold storage.
FIG. 9A-C. […] Following spironolactone treatment, much improved (A) max dp/dt and (B) min dp/dt after prolonged storage after 8 hours and 12 hours was observed compared to HTK alone. N=4. **p<0.01, ***p<0.001 (C) Spironolactone suppress the Il1 and Myd88 protein level induced by cold storage.
as §1
Murine donor hearts were isolated and preserved in HTK solution for 0 h, 4 h and 8 h. The cardiac hemodynamics were then examined in an ex-vivo perfusion system. […] This was accompanied by increasing apoptotic cell death by TUNEL staining (FIG. 6C). Occurrence of cell death processes such as apoptosis with increasing storage duration is corroborated by Increased expression of cleaved poly (ADP-ribose) polymerase (PARP), a marker of cell death (FIG. 6D).
as §2
This is another data set of the same source.

The subject of experiment [3] is donor hearts from C57BL/6J mice. Nature of the experiment: Reanimation of murine donor hearts on ex-vivo Langendorff apparatus after cold storage. The conditions noted are these: up to 5 hours of cold storage, vs HTK solution.
Description: From murine heart experiments, donor hearts from C57BL/6J mice were preserved with either HTK solution or VPA+HTK solution and then stored in ice as per clinical protocols. The cold storage time was varied from 0 hour to 9 hours before reperfusing on an ex-vivo Langendorff apparatus.
Another experiment concerns pig hearts. Nature of the experiment: Ex-vivo isolated pig heart perfusion after 6 hours of ice storage in HTK with or without VPA. The conditions noted are these: 6 grams VPA in 2 liters HTK, 6 hours on ice. As for the experimental part: FIG. 1. Coronary vascular resistance after two hours of ex-vivo pig heart perfusion. […] 6 grams of VPA was dissolved in 2 liters of heart preservation solution (histidine-tryptophan-ketoglutarate solution, HTK) and then infused this through the aortic root of freshly sacrificed pig hearts (n=3). For the control group (n=3) only HTK solution was infused. HTK solution is one of the standard donor heart preservation solutions used clinically for heart transplantation. The pig heart was then stored in ice after mechanical arrest with HTK solution as per standard transplant protocol for a total of 6 hours. After 6 hours, the hearts were retrieved and perfused with pig blood in an ex-vivo isolated heart perfusion model. The hearts were then examined for cardiac performance.

The test system of a further experiment is human donor hearts. Nature of the experiment: RNA-Seq gene set enrichment analysis of human donor hearts during cold (4° C.) storage. As for the experimental part:
For treatment of human donor hearts, 6 grams of VPA was dissolved in 2 liters of HTK preservation solution and also used 2 liters of HTK solution as control. The solutions were then infused this through the aortic root of human donor hearts (n=3). RNA-Seq was performed to study the transcriptomic effect of VPA on the human heart during cold (4° C.) storage. Total RNA was isolated from the heart tissue stored at 0 h, 4 h and 8 h time points. Gene set enrichment analysis was then performed at different time points with or without VPA treatment.

The mark [4] stands for this setting: Alda-1 vs HTK alone, after 8 h of cold storage.
Where [5] appears, read: canrenone vs HTK alone, after 8 hours of preservation.
The mark [6] stands for this setting: canrenone vs HTK alone, prolonged storage after 4 hours and 8 hours.
Where [7] appears, read: spironolactone, western blot, listed as spironolactone.
Setting [8] is: HTK with 25 μM spironolactone vs HTK alone, after 8 h and 12 h of cold storage.
The mark [9] stands for this setting: HTK with 25 μM spironolactone vs HTK alone, after 8 h and 12 h of cold storage, listed as spironolactone.
Setting [10] is: HTK with 20 mM VPA vs HTK alone, after 4 h and 8 h of cold storage.

Entries after “also recorded” stand apart in the source; their conditions may differ.

Consider `O=C(NCc1ccc2c(c1)OCO2)c1c(Cl)cccc1Cl` [Alda-1, N-(1,3-benzodioxo1-5-ylmethyl)-2,6-dichlorobenzamide], for which, in the experiment on murine donor hearts [1] (setting [4]), the “max dp/dt (donor heart contractility)” value is reported as “dramatically improves; also recorded: improved” and the “min dp/dt (donor heart relaxation)” value is “dramatically improves; also recorded: improved”.
`C[C@]12CCC(=O)C=C1C=C[C@@H]1[C@@H]2CC[C@@]2(C)[C@H]1CC[C@@]21CCC(=O)O1` [Canrenone, canrenone]: in the experiment on murine donor hearts [1] (setting [5]), the “max dp/dt (donor heart contraction)” value is “significantly improves” and the “min dp/dt (donor heart relaxation)” value was “significantly improves”. Moreover, in the experiment on murine donor hearts [1] (setting [6]), the max dp/dt result is listed as “much improved” and the min dp/dt entry is reported as “much improved”.
As for `CC(=O)S[C@@H]1CC2=CC(=O)CC[C@]2(C)[C@H]2CC[C@@]3(C)[C@@H](CC[C@@]34CCC(=O)O4)[C@H]12` [Spironolactone, spironolactone], the Il1 protein level entry with Il1 (spironolactone, western blot) is “suppress”; in the experiment with Il1 (setting [7]), “significantly reduced”. The Myd88 protein level entry is recorded as “suppress” in the experiment with Myd88 (spironolactone, western blot) and “significantly reduced” in the experiment on Myd88 (setting [7]). In addition, the figures for the “max dp/dt (donor heart contractility)” value with murine donor hearts [2] (setting [8]) and in the experiment on murine donor hearts [2] (setting [9]) were “much improved” and “dramatically improved”, respectively. The “min dp/dt (donor heart relaxation)” value is given as “much improved” in the experiment with murine donor hearts [2] (setting [8]) and “dramatically improved” with murine donor hearts [2] (setting [9]).
For `CCCC(CCC)C(=O)O` [VPA, Valproic acid], the Il1 protein level result in the experiment with Il1 (HTK with 20 mM VPA) is on record as “suppress; also recorded: reduced protein level”. For the same molecule, the cardiac reanimation entry in experiment [3] was “successful and comparable for both groups”. In addition, in the experiment with Myd88 (HTK with 20 mM VPA), the Myd88 protein level result is listed as “suppress; also recorded: reduced protein level”. Besides, in the experiment on murine donor hearts [2] (setting [10]), the “max dp/dt (donor heart contractility)” value is on record as “improves donor heart function; also recorded: dramatically improved” and the “min dp/dt (donor heart relaxation)” value is reported as “improves donor heart function; also recorded: dramatically improved”. In the experiment on pig hearts (pig hearts (n=3), control 2 out of 3), the “fibrillatory arrest during ex-vivo perfusion” value was “None”. The “Coronary vascular resistance / coronary vascular tone” value in the experiment with pig hearts (pig hearts, after two hours of ex-vivo perfusion, vs HTK control) is recorded as “improved; also recorded: trend toward better maintenance”. Further, in the experiment on human donor hearts (LV, VPA vs HTK Only), the “NES, Inflammatory response” value is given as −1.47; the “NES, Interferon gamma response” value is given as −1.65; the “NES, TNFa signaling via NFkB” value is listed as −1.68. Also, in the experiment with human donor hearts (LV, during cold storage), the “accumulation of genes related to inflammatory response” value is listed as “significantly reduced”. Besides, in the experiment with human donor hearts (RV, VPA vs HTK Only), the “NES, Inflammatory response” value is on record as −1.32; the “NES, P53 pathway” value is on record as −1.25; the “NES, TNFa signaling via NFkB” value is reported as −1.96. Besides, in the experiment on human donor hearts (RV, during cold storage), the “activation of p53 proapoptotic pathway” value is “reduced the activation” and the “expression of inflammatory response genes” value is on record as “reduced expression”.

(Values after patent US20220322656A1, “PRESERVATION OF ORGANS FOR TRANSPLANT AND NON-TRANSPLANT SURGERIES” (The Regents of the University of Michigan, priority 2019, published 2022).)
